# Counter-ions that a name gives are not always drawn. Like-named read-outs stand apart in the source and are kept apart here.
# Assays:
# Assay in all cases: AK assay 384-well format, Prestwick library screening
# [1] = test system: P. aeruginosa; assay type: cell-based, Pseudomonas aeruginosa; conditions: 50 μM final drug concentration; for fold induction at 50 µM: Pseudomonas aeruginosa, 3 h
# [2] = test system: S. aureus strain USA300-0114; assay type: cell-based, Staphylococcus aureus; conditions: 50 μM final drug concentration; for fold induction at 50 µM: Staphylococcus aureus, USA300, 3 h
# [3] = test system: E. faecium; assay type: cell-based, Enterococcus faecium; conditions: 50 μM final drug concentration; for fold induction at 50 µM: Enterococcus faecium, 3 h
# [4] = test system: A. baumannii strain 98-37-09; assay type: cell-based, Acinetobacter baumannii; conditions: 50 μM final drug concentration; for fold induction at 50 µM: Acinetobacter baumannii, 983709, 3 h
# [5] = test system: K. pneumoniae; assay type: cell-based, Klebsiella pneumoniae; conditions: 50 μM final drug concentration; for fold induction at 50 µM: Klebsiella pneumoniae, 3 h
# [6] = test system: E. coli; assay type: cell-based, Escherichia coli; conditions: 50 μM final drug concentration; for fold induction at 50 µM: Escherichia coli, 3 h
# [7] = test system: E. cloacae; assay type: cell-based, Enterobacter cloacae; conditions: 50 μM final drug concentration; for fold induction at 50 µM: Enterobacter cloacae, 3 h
# [8] = 384-well format, cutoff for positive-scoring molecules 3-fold increase
# [9] = planktonic P. aeruginosa, 384-well, cutoff for positive-scoring molecules 3-fold increase, read-out: AK-based Prestwick Library Screening Results: P. aeruginosa (increase in extracellular AK activity)
# [10] = planktonic S. aureus, 384-well, cutoff for positive-scoring molecules 3-fold increase, read-out: AK-based Prestwick Library Screening Results: S. aureus (increase in extracellular AK activity)
# [11] = planktonic E. faecium, 384-well, cutoff for positive-scoring molecules 3-fold increase, read-out: AK-based Prestwick Library Screening Results: E. faecium (increase in extracellular AK activity)
# [12] = planktonic A. baumannii, 384-well, cutoff for positive-scoring molecules 3-fold increase, read-out: AK-based Prestwick Library Screening Results: A. baumannii (increase in extracellular AK activity)
# [13] = planktonic K. pneumoniae, 384-well, cutoff for positive-scoring molecules 3-fold increase, read-out: AK-based Prestwick Library Screening Results: K. pneumoniae (increase in extracellular AK activity)
# [14] = planktonic E. coli, 384-well, cutoff for positive-scoring molecules 3-fold increase, read-out: AK-based Prestwick Library Screening Results: E. coli (increase in extracellular AK activity)
# [15] = planktonic E. cloacae, 384-well, cutoff for positive-scoring molecules 3-fold increase, read-out: AK-based Prestwick Library Screening Results: E. cloacae (increase in extracellular AK activity)
smiles,measurement,setting,value
Cn1c(=O)c2[nH]cnc2n(C)c1=O [Aminophylline],fold induction at 50 µM,"[1]; planktonic, cutoff for positive-scoring molecules 3-fold increase, read-out: AK-based Prestwick Library Screening Results, P. aeruginosa (fold increase in extracellular AK activity)",0.8
same,fold induction at 50 µM,"[2]; planktonic, cutoff for positive-scoring molecules 3-fold increase, read-out: AK-based Prestwick Library Screening Results, S. aureus (fold increase in extracellular AK activity)",0.6
same,fold induction at 50 µM,"[3]; planktonic, cutoff for positive-scoring molecules 3-fold increase, read-out: AK-based Prestwick Library Screening Results, E. faecium (fold increase in extracellular AK activity)",0.9
same,fold induction at 50 µM,"[4]; planktonic, cutoff for positive-scoring molecules 3-fold increase, read-out: AK-based Prestwick Library Screening Results, A. baumannii (fold increase in extracellular AK activity)",0.7
same,fold induction at 50 µM,"[5]; planktonic, cutoff for positive-scoring molecules 3-fold increase, read-out: AK-based Prestwick Library Screening Results, K. pneumoniae (fold increase in extracellular AK activity)",0.6
same,fold induction at 50 µM,"[6]; planktonic, cutoff for positive-scoring molecules 3-fold increase, read-out: AK-based Prestwick Library Screening Results, E. coli (fold increase in extracellular AK activity)",0.6
same,fold induction at 50 µM,"[7]; planktonic, cutoff for positive-scoring molecules 3-fold increase, read-out: AK-based Prestwick Library Screening Results, E. cloacae (fold increase in extracellular AK activity)",0.8
"c1ccc(CNc2ncnc3[nH]cnc23)cc1 [Aminopurine, 6-benzyl]","AK-based Prestwick Library Screening Results, P. aeruginosa (increase in extracellular AK activity)",[1]; [8],0.9
same,"AK-based Prestwick Library Screening Results, S. aureus (increase in extracellular AK activity)",[2]; [8],0.7
same,"AK-based Prestwick Library Screening Results, E. faecium (increase in extracellular AK activity)",[3]; [8],0.9
same,"AK-based Prestwick Library Screening Results, A. baumannii (increase in extracellular AK activity)",[4]; [8],0.8
same,"AK-based Prestwick Library Screening Results, K. pneumoniae (increase in extracellular AK activity)",[5]; [8],0.8
same,"AK-based Prestwick Library Screening Results, E. coli (increase in extracellular AK activity)",[6]; [8],0.9
same,"AK-based Prestwick Library Screening Results, E. cloacae (increase in extracellular AK activity)",[7]; [8],1.1
CCCCc1oc2ccccc2c1C(=O)c1cc(I)c(OCCN(CC)CC)c(I)c1 [Amiodarone hydrochloride],fold induction at 50 µM,[1]; [9],0.5
same,fold induction at 50 µM,[2]; [10],0.7
same,fold induction at 50 µM,[3]; [11],1.7
same,fold induction at 50 µM,[4]; [12],2.2
same,fold induction at 50 µM,[5]; [13],0.6
same,fold induction at 50 µM,[6]; [14],0.7
same,fold induction at 50 µM,[7]; [15],0.5
CN(C)CCCO[C@@H]1[C@H]2OC(C)(C)O[C@H]2O[C@@H]1[C@H](O)CO [Amiprilose hydrochloride],fold induction at 50 µM,"[1]; cutoff for positive-scoring molecules 3-fold increase, read-out: AK-based Prestwick Library Screening Results, P. aeruginosa (fold increase in extracellular AK activity)",1.1
same,fold induction at 50 µM,"[2]; cutoff for positive-scoring molecules 3-fold increase, read-out: AK-based Prestwick Library Screening Results, S. aureus (fold increase in extracellular AK activity)",1.3
same,fold induction at 50 µM,"[3]; cutoff for positive-scoring molecules 3-fold increase, read-out: AK-based Prestwick Library Screening Results, E. faecium (fold increase in extracellular AK activity)",1.1
same,fold induction at 50 µM,"[4]; cutoff for positive-scoring molecules 3-fold increase, read-out: AK-based Prestwick Library Screening Results, A. baumannii (fold increase in extracellular AK activity)",1.2
same,fold induction at 50 µM,"[5]; cutoff for positive-scoring molecules 3-fold increase, read-out: AK-based Prestwick Library Screening Results, K. pneumoniae (fold increase in extracellular AK activity)",0.9
same,fold induction at 50 µM,"[6]; cutoff for positive-scoring molecules 3-fold increase, read-out: AK-based Prestwick Library Screening Results, E. coli (fold increase in extracellular AK activity)",1.3
same,fold induction at 50 µM,"[7]; cutoff for positive-scoring molecules 3-fold increase, read-out: AK-based Prestwick Library Screening Results, E. cloacae (fold increase in extracellular AK activity)",1.5
CN(C)CCC=C1c2ccccc2CCc2ccccc21.Cl [Amitryptiline hydrochloride],AK-based Prestwick Library Screening Results: P. aeruginosa (increase in extracellular AK activity),"[1]; planktonic P. aeruginosa, 384-well, […]",1.0
same,AK-based Prestwick Library Screening Results: S. aureus (increase in extracellular AK activity),"[2]; planktonic S. aureus, 384-well, […]",1.4
same,AK-based Prestwick Library Screening Results: E. faecium (increase in extracellular AK activity),"[3]; planktonic E. faecium, 384-well, […]",1.0
same,AK-based Prestwick Library Screening Results: A. baumannii (increase in extracellular AK activity),"[4]; planktonic A. baumannii, 384-well, […]",1.3
same,AK-based Prestwick Library Screening Results: K. pneumoniae (increase in extracellular AK activity),"[5]; planktonic K. pneumoniae, 384-well, […]",1.1
same,AK-based Prestwick Library Screening Results: E. coli (increase in extracellular AK activity),"[6]; planktonic E. coli, 384-well, […]",1.2
same,AK-based Prestwick Library Screening Results: E. cloacae (increase in extracellular AK activity),"[7]; planktonic E. cloacae, 384-well, […]",1.8
CCN(CC)Cc1cc(Nc2ccnc3cc(Cl)ccc23)ccc1O [Amodiaquin dihydrochloride dihydrate],fold induction at 50 µM,[1]; [9],1.2
same,fold induction at 50 µM,[2]; [10],1.3
same,fold induction at 50 µM,[3]; [11],1.1
same,fold induction at 50 µM,[4]; [12],1.5
same,fold induction at 50 µM,[5]; [13],0.9
same,fold induction at 50 µM,[6]; [14],1.2
same,fold induction at 50 µM,[7]; [15],1.4
Clc1ccc2c(c1)C(N1CCNCC1)=Nc1ccccc1O2 [Amoxapine],fold induction at 50 µM,"[1]; 384-well format, cutoff for positive-scoring molecules 3-fold increase, read-out: AK-based Prestwick Library Screening Results, P. aeruginosa (increase in extracellular AK activity)",0.9
same,fold induction at 50 µM,"[2]; 384-well format, cutoff for positive-scoring molecules 3-fold increase, read-out: AK-based Prestwick Library Screening Results, S. aureus (increase in extracellular AK activity)",0.7
same,fold induction at 50 µM,"[3]; 384-well format, cutoff for positive-scoring molecules 3-fold increase, read-out: AK-based Prestwick Library Screening Results, E. faecium (increase in extracellular AK activity)",0.9
same,fold induction at 50 µM,"[4]; 384-well format, cutoff for positive-scoring molecules 3-fold increase, read-out: AK-based Prestwick Library Screening Results, A. baumannii (increase in extracellular AK activity)",0.8
same,fold induction at 50 µM,"[5]; 384-well format, cutoff for positive-scoring molecules 3-fold increase, read-out: AK-based Prestwick Library Screening Results, K. pneumoniae (increase in extracellular AK activity)",0.8
same,fold induction at 50 µM,"[6]; 384-well format, cutoff for positive-scoring molecules 3-fold increase, read-out: AK-based Prestwick Library Screening Results, E. coli (increase in extracellular AK activity)",1
same,fold induction at 50 µM,"[7]; 384-well format, cutoff for positive-scoring molecules 3-fold increase, read-out: AK-based Prestwick Library Screening Results, E. cloacae (increase in extracellular AK activity)",0.9
CC1(C)S[C@@H]2[C@H](NC(=O)[C@H](N)c3ccc(O)cc3)C(=O)N2[C@H]1C(=O)O [Amoxicillin],fold induction at 50 µM,"[1]; planktonic P. aeruginosa, cutoff for positive-scoring molecules 3-fold increase, read-out: AK-based Prestwick Library Screening Results, P. aeruginosa (increase in extracellular AK activity)",0.7
same,fold induction at 50 µM,"[2]; planktonic S. aureus, cutoff for positive-scoring molecules 3-fold increase, read-out: AK-based Prestwick Library Screening Results, S. aureus (increase in extracellular AK activity)",0.4
same,fold induction at 50 µM,"[3]; planktonic E. faecium, cutoff for positive-scoring molecules 3-fold increase, read-out: AK-based Prestwick Library Screening Results, E. faecium (increase in extracellular AK activity)",1.4
same,fold induction at 50 µM,"[4]; planktonic A. baumannii, cutoff for positive-scoring molecules 3-fold increase, read-out: AK-based Prestwick Library Screening Results, A. baumannii (increase in extracellular AK activity)",1.7
same,fold induction at 50 µM,"[5]; planktonic K. pneumoniae, cutoff for positive-scoring molecules 3-fold increase, read-out: AK-based Prestwick Library Screening Results, K. pneumoniae (increase in extracellular AK activity)",0.7
same,fold induction at 50 µM,"[6]; planktonic E. coli, cutoff for positive-scoring molecules 3-fold increase, read-out: AK-based Prestwick Library Screening Results, E. coli (increase in extracellular AK activity)",10.6
same,fold induction at 50 µM,"[7]; planktonic E. cloacae, cutoff for positive-scoring molecules 3-fold increase, read-out: AK-based Prestwick Library Screening Results, E. cloacae (increase in extracellular AK activity)",1
C[C@@H]1[C@H](O)[C@@H](C)/C=C/C=C/C=C/C=C/C=C/C=C/C=C/[C@H](O[C@@H]2O[C@H](C)[C@@H](O)[C@H](N)[C@@H]2O)C[C@@H]2O[C@](O)(C[C@@H](O)C[C@@H](O)[C@H](O)CC[C@@H](O)C[C@@H](O)CC(=O)O[C@H]1C)C[C@H](O)[C@H]2C(=O)O [Amphotericin B],AK-based Prestwick Library Screening Results: P. aeruginosa (increase in extracellular AK activity),"[1]; planktonic P. aeruginosa, 384-well, cutoff for positive-scoring molecules 3-fold increase",0.4
same,AK-based Prestwick Library Screening Results: S. aureus (increase in extracellular AK activity),"[2]; planktonic S. aureus, 384-well, cutoff for positive-scoring molecules 3-fold increase",0.5
same,AK-based Prestwick Library Screening Results: E. faecium (increase in extracellular AK activity),"[3]; planktonic E. faecium, 384-well, cutoff for positive-scoring molecules 3-fold increase",0.9
same,AK-based Prestwick Library Screening Results: A. baumannii (increase in extracellular AK activity),"[4]; planktonic A. baumannii, 384-well, cutoff for positive-scoring molecules 3-fold increase",0.5
same,AK-based Prestwick Library Screening Results: K. pneumoniae (increase in extracellular AK activity),"[5]; planktonic K. pneumoniae, 384-well, cutoff for positive-scoring molecules 3-fold increase",0.7
same,AK-based Prestwick Library Screening Results: E. coli (increase in extracellular AK activity),"[6]; planktonic E. coli, 384-well, cutoff for positive-scoring molecules 3-fold increase",0.5
same,AK-based Prestwick Library Screening Results: E. cloacae (increase in extracellular AK activity),"[7]; planktonic E. cloacae, 384-well, cutoff for positive-scoring molecules 3-fold increase",0.5
